Key:
[1] = target: T1, prothrombinase-activated wild-type prothrombin (Homo sapiens, UniProt P00734); assay: Inhibition of pNAPEP-0238 peptidyl substrate conversion in a purified system; assay type: biochemical; details: wild-type thrombin, observed vs reported (ref 41)
Description: (§1) Prothrombin variants were activated to thrombin by prothrombinase immediately prior to analyses. Reaction mixtures of prothrombin variant (1 μM) and preassembled prothrombinase (2 nM FXa, 2 nM FV-810, and 50 μM phospholipid TGT, final concentrations) were incubated for 30 minutes at 25°C in assay buffer, upon which the reaction was quenched in dilution buffer supplemented with 50 mM EDTA.

[2] = system: FXa; parameters: method as in PMID 28904343, PMID 38729577; details: S4 subsite modified FXa variants; cited from earlier work
[3] = target: T1, prothrombinase-activated wild-type prothrombin; details: 1 μM dabigatran
Description: Fibrinogen conversion was determined employing a turbidity assay. […] Turbidity was measured for 1 hour at 25°C and 350 nm.

[4] = target: wild-type thrombin; details: read-out: reported K i, substrate conversion; cited from earlier work
[5] = target: prothrombinase-activated prothrombin-KL3; assay type: biochemical, human
Description: as §1

[6] = system: thrombin; details: read-out: reported IC50, peak thrombin formation; cited from earlier work

CC1CNc2c(cccc2S(=O)(=O)N[C@@H](CCCNC(=N)N)C(=O)N2CC[C@@H](C)C[C@@H]2C(=O)O)C1 (some centres unmarked) [Argatroban]
lower K i value observed versus reported [1]: 13 fold

COc1ccc(-n2nc(C(N)=O)c3c2C(=O)N(c2ccc(N4CCCCC4=O)cc2)CC3)cc1 [apixaban]
hindered FXa active site engagement by inhibitor [2]: ≤ 800 fold

[H]/N=C(/N)c1ccc(NCc2nc3cc(C(=O)N(CCC(=O)O)c4ccccn4)ccc3n2C)cc1 [Dabigatran]
fibrinogen conversion by activated wild-type prothrombin (in words) [3]: no detectable fibrinogen conversion
Ki [4]: 5 nM
IC50 ([5]; 5 nM prothrombinase-activated KL3, 50 μM pNAPEP-0238, read-out: IC50, pNAPEP-0238 conversion): 237 ± 33 nM
Ki ([5]; KL3, Cheng-Prusoff equation): 150 nM

O=C(NC[C@H]1CN(c2ccc(N3CCOCC3=O)cc2)C(=O)O1)c1ccc(Cl)s1 [rivaroxaban]
hindered FXa active site engagement by inhibitor [2]: ≤ 800 fold

— article PMC12758957 (Thrombosis and Haemostasis, 2025)
